In US20100063041A1, “NOVEL PHENYLPROPIONIC ACID DERIVATIVES AS PEROXISOME PROLIFERATOR-ACTIVATED GAMMA RECEPTOR MODULATORS, METHOD OF THE SAME, AND PHARMACEUTICAL COMPOSITION COMPRISING THE SAME” (priority 2007, published 2010):
Where a chain is given by its changes, count along the chain named. pEC50: −log10 of the molar value.

Experiments:
[1] = molecular target: T1, Human PPAR-γ (Homo sapiens, UniProt P37231); assay: transactivation assay (GAL4 chimeric receptor, luciferase) in CV-1 cells; assay type: cell-based; details: for Emax: CV-1, Relative Response % to maximum effects of the positive control drug, read-out: Max % Human PPAR-γ; for pEC50: CV-1 cells, GAL4 chimeric receptor, 24 hours
T1 construct: expressed in transfected cells; host or cells: CV-1 (CCL-70, ATCC)
T1 sequence (P37231 238-503 limits assumed): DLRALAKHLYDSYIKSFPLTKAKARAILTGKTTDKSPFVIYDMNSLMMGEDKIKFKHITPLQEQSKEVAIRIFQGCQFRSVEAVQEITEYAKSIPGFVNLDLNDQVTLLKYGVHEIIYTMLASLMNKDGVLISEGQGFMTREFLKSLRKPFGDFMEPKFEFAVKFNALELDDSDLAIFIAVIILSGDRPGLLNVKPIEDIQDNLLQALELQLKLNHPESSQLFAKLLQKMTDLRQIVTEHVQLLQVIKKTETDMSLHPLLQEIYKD
Method: (§1) Following induction of transient intracellular expression of PPAR-α and -γ, an ability of the inventive compounds to induce transactivation of PPARs via activation of each PPAR was evaluated as an efficacy of the compound (transactivation assay).
(§2) For this assay, the African green monkey kidney cell line CV-1 (CCL-70, ATCC) was used as a test cell line, and PPAR-α and -γ were murine- and human-derived PPARs. Samples used were compounds prepared in Examples 19, 21, 23, 25, 26, 27, 31, 33, 34, 36, 38, 40, 42, 43 and 50. As a positive control drug, 3-4-[2-(2-phenyl-4-methyl-1,3-oxazole)ethyloxy]phenyl-(2S)-[(1-methyl-3-oxo-3-phenyl)propenyl]aminopropionic acid was used that is a PPAR-α or -γ agonist which was once under development and whose clinical trials and studies were suspended at phase III. A chimeric receptor was adopted to circumvent the probable interference due to endogenous receptor activation (Jian-Shen Q. et al., Mol Cell Biol (1995) 15(3):1817-1825). The chimeric receptor was constructed as a fusion of a PPAR-α or -γ ligand-binding domain with a DNA-binding domain of GAL4 which is a yeast transactivator.
(§3) The CV-1 cells were transiently transfected with each of chimeric receptor-expressing DNA constructs and each of DNA constructs comprising 5 copies of the GAL4 DNA-binding domain and capable of inducing expression of firefly luciferase or Renilla luciferase using a Lipofectamine Plus reagent (Invitrogen, USA). After transfection for 3 hours, the culture media were replaced with DMEM containing the above samples and 10% fetal bovine serum. 24 hours later, the firefly luciferase activity and Renilla luciferase activity were continuously assayed while adding an equal amount of a dual luciferase assay reagent (Promega, USA) to the cell-containing media. The transfection efficiency was normalized against Renilla luciferase activity (Motomura W. et al., Int J Cancer (2004) 108(1):41-6). The PPAR-α and -γ activity was determined by calculating Relative Response % to maximum effects of the positive control drug, and conducting multiple dose evaluation of the inventive compounds to calculate EC50, which is the concentration of a drug which produces 50% activation relative to maximum effects of the inventive compounds, by nonlinear regression analysis.

[2] = molecular target: T2, Mouse PPAR-α (Mus musculus, UniProt P23204); assay: as above; assay type: cell-based; details: for Emax: CV-1, Relative Response % to maximum effects of the positive control drug, read-out: Max % Mouse PPAR-α; for pEC50: CV-1 cells, GAL4 chimeric receptor, 24 hours
T2 construct: expressed in transfected cells; host or cells: CV-1 (CCL-70, ATCC)
T2 sequence (P23204 239-466 limits assumed): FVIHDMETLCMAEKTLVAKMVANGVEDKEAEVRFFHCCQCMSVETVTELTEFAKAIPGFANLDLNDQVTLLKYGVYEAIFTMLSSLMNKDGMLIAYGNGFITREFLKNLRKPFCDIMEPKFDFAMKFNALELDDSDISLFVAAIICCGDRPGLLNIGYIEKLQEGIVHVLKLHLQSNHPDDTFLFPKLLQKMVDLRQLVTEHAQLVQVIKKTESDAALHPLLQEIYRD
Method: as §1, §2, §3

[3] = molecular target: T3, Human PPAR-α (Homo sapiens, UniProt Q07869); assay: as above; assay type: cell-based; details: for Emax: CV-1, Relative Response % to maximum effects of the positive control drug, read-out: Max % Human PPAR-α; for pEC50: CV-1 cells, GAL4 chimeric receptor, 24 hours
T3 construct: expressed in transfected cells; host or cells: CV-1 (CCL-70, ATCC)
T3 sequence (Q07869 239-466 limits assumed): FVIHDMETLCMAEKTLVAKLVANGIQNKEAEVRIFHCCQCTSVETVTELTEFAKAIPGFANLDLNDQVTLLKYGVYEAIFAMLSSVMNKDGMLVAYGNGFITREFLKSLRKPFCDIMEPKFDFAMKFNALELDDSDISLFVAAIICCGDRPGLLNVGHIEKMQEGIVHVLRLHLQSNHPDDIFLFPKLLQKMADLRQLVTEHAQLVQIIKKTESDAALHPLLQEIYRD
Method: as §1, §2, §3

[4] = molecular target: T4, Mouse PPAR-γ (Mus musculus, UniProt P37238); assay: as above; assay type: cell-based; details: for Emax: CV-1, Relative Response % to maximum effects of the positive control drug, read-out: Max % Mouse PPAR-γ; for pEC50: CV-1 cells, GAL4 chimeric receptor, 24 hours
T4 construct: expressed in transfected cells; host or cells: CV-1 (CCL-70, ATCC)
T4 sequence (P37238 238-503 limits assumed): T1 sequence (P37231 238-503 limits assumed) with S93N, V98I, S146N, L226V, Q245H
Method: as §1, §2, §3

[5] = test system: diabetic male mice (db/db mice); assay: blood glucose-lowering effects in mice with hyperglycemic diabetes; assay type: in vivo; details: for % Inhibition vs. Control / Blood glucose D5: oral once a day for 5 days; for Blood glucose D0: oral
Method: Effects of PPAR compounds on a blood glucose level were evaluated in 7-week-old diabetic male mice (db/db mice). Blood was collected from caudal veins of the diabetic animals to which the drug was administered once a day for 5 consecutive days, and the blood glucose level was then measured with a blood glucose test meter (ACCU CHEK Active®).

[6] = 12-week clinical, P>0.05, cited from earlier work

| Compound | Emax [1] [%] | pEC50 [1] | Emax [2] [%] | Emax [3] [%] | Emax [4] [%] | pEC50 [4] | pEC50 [3] | pEC50 [2] | % Inhibition vs. Control ([5]; 0.3 mg/kg) [%] | Blood glucose D5 ([5]; 0.3 mg/kg) [mg/dL] | % Inhibition vs. Control ([5]; 1 mg/kg) [%] | Blood glucose D5 ([5]; 1 mg/kg) [mg/dL] | % Inhibition vs. Control ([5]; 3 mg/kg) [%] | Blood glucose D5 ([5]; 3 mg/kg) [mg/dL] | Blood glucose D0 ([5]; 0.3 mg/kg) [mg/dL] | Blood glucose D0 ([5]; 1 mg/kg) [mg/dL] | Blood glucose D0 ([5]; 3 mg/kg) [mg/dL] | other results |
| --- | --- | --- | --- | --- | --- | --- | --- | --- | --- | --- | --- | --- | --- | --- | --- | --- | --- | --- |
| CCO[C@@H](Cc1ccc(OCc2sc(-c3ccc(-c4csc(C)n4)cc3)cc2C)cc1)C(=O)O [Example 21, (S)-2-ethoxy-3-(4-((3-methyl-5-(4-(2-methylthiazol-4-yl)phenyl)thiophen-2-yl)methoxy)phenyl)propionic acid] | 15 | 6.33 | 4 | 0 | 18 | 6.05 |  |  | 28 | 354 ± 67 | 29 | 354 ± 58 | 36 | 319 ± 63 | 483 ± 38 | 482 ± 45 | 483 ± 45 | % Inhibition vs. Control ([5]; 0.1 mg/kg): 16%; Blood glucose D5 ([5]; 0.1 mg/kg): 416 ± 45 mg/dL; Blood glucose D0 ([5]; 0.1 mg/kg): 485 ± 44 mg/dL |
| CCO[C@@H](Cc1ccc(OCc2sc(-c3ccc(-c4nnn(COC)n4)cc3)cc2C)cc1)C(=O)O [Example 32, (S)-2-ethoxy-3-(4-((5-(4-(2-(methoxymethyl)-2H-tetrazol-5-yl)phenyl)-3-methylthiophen-2-yl)methoxy)phenyl)propionic acid] | 32 | 6.95 | 9 | 18 | 31 | 6.49 | 6.00 |  | 21 | 416 ± 53 |  |  | 61 | 205 ± 42 | 500 ± 32 |  | 498 ± 30 |  |
| CCO[C@@H](Cc1ccc(OCc2sc(-c3ccc(-c4cc(COC)on4)cc3)cc2C)cc1)C(=O)O [Example 36, (S)-2-ethoxy-3-(4-((5-(4-(5-(methoxymethyl)isoxazol-3-yl)phenyl)-3-methylthiophen-2-yl)methoxy)phenyl)propionic acid] | 37 | 7.39 | 21 | 25 | 48 | 6.45 | 5.64 | 5.37 |  |  | 33 | 381 ± 73 |  |  |  | 577 ± 15 |  | % Inhibition vs. Control ([5]; 10 mg/kg): 62%; Blood glucose D5 ([5]; 10 mg/kg): 278 ± 56 mg/dL; Blood glucose D0 ([5]; 10 mg/kg): 577 ± 16 mg/dL |
| CC(=O)NCCOC(=O)[C@H](Oc1cccc(C(F)(F)F)c1)c1ccc(Cl)cc1 [metaglidasen] |  |  |  |  |  |  |  |  |  |  |  |  |  |  |  |  |  | edema incidence rate ([6]; 20% in control group): 7.2%; body weight ([6]; +1.3 kg in control group): +0.6 kg |

Second part, led by results:

| Emax [1] [%] | pEC50 [1] | Emax [2] [%] | Emax [3] [%] | Emax [4] [%] | pEC50 [4] | pEC50 [3] | pEC50 [2] | Compound | % Inhibition vs. Control ([5]; 0.3 mg/kg) [%] | Blood glucose D5 ([5]; 0.3 mg/kg) [mg/dL] | % Inhibition vs. Control ([5]; 1 mg/kg) [%] | Blood glucose D5 ([5]; 1 mg/kg) [mg/dL] | % Inhibition vs. Control ([5]; 3 mg/kg) [%] | Blood glucose D5 ([5]; 3 mg/kg) [mg/dL] | Blood glucose D0 ([5]; 0.3 mg/kg) [mg/dL] | Blood glucose D0 ([5]; 1 mg/kg) [mg/dL] | Blood glucose D0 ([5]; 3 mg/kg) [mg/dL] | other results |
| --- | --- | --- | --- | --- | --- | --- | --- | --- | --- | --- | --- | --- | --- | --- | --- | --- | --- | --- |
| 68 | 7.00 | 49 | 51 | 81 | 6.74 | 5.29 | 5.24 | CCO[C@@H](Cc1ccc(OCc2sc(-c3ccc(-c4cc(C(=O)NC)no4)cc3)cc2C)cc1)C(=O)O [Example 38, (S)-2-ethoxy-3-(4-((3-methyl-5-(4-(3-(methylcarbamoyl)isoxazol-5-yl)phenyl)thiophen-2-yl)methoxy)phenyl)propionic acid] |  |  |  |  |  |  |  |  |  |  |
| 31 | 7.72 | 5 | 7 | 30 | 6.96 |  |  | CCO[C@@H](Cc1ccc(OCc2sc(-c3ccc(-c4cc(COC)no4)cc3)cc2C)cc1)C(=O)O [Example 40, (S)-2-ethoxy-3-(4-((5-(4-(3-(methoxymethyl)isoxazol-5-yl)phenyl)-3-methylthiophen-2-yl)methoxy)phenyl)propionic acid] |  |  |  |  |  |  |  |  |  |  |
| 30 | 7.21 | 19 | 23 | 34 | 6.85 | 5.50 | 5.21 | CCO[C@@H](Cc1ccc(OCc2sc(-c3ccc(-c4cc(C)no4)cc3)cc2C)cc1)C(=O)O [Example 41, (S)-2-ethoxy-3-(4-((3-methyl-5-(4-(3-methylisoxazol-5-yl)phenyl)thiophen-2-yl)methoxy)phenyl)propionic acid] | 20 | 378 ± 44 | 36 | 304 ± 13 | 46 | 257 ± 40 | 422 ± 36 | 422 ± 30 | 423 ± 35 | % Inhibition vs. Control ([5]; 0.1 mg/kg): 4%; Blood glucose D5 ([5]; 0.1 mg/kg): 455 ± 67 mg/dL; Blood glucose D0 ([5]; 0.1 mg/kg): 422 ± 34 mg/dL |
| 50 | 7.09 | 71 | 60 | 70 | 6.68 | 5.85 | 6.25 | CCO[C@@H](Cc1ccc(OCc2sc(-c3ccc(-c4cc(C)no4)cc3)nc2C)cc1)C(=O)O [Example 47, (S)-2-ethoxy-3-(4-((4-methyl-2-(4-(3-methylisoxazol-5-yl)phenyl)thiazol-5-yl)methoxy)phenyl)propionic acid] |  |  |  |  |  |  |  |  |  |  |
| 27 | 8.15 | 25 | 22 | 24 | 7.51 | 5.55 | 4.92 | CCO[C@@H](Cc1ccc(OCc2sc(-c3ccc(-c4cc(C(C)(C)C)on4)cc3)cc2C)cc1)C(=O)O [Example 48, (S)-3-(4-((5-(4-(5-tert-butylisoxazol-3-yl)phenyl)-3-methylthiophen-2-yl)methoxy)phenyl)-2-ethoxypropionic acid] |  |  | 24 | 375 ± 25 | 30 | 347 ± 70 |  | 452 ± 22 | 453 ± 20 | % Inhibition vs. Control ([5]; 10 mg/kg): 43%; Blood glucose D5 ([5]; 10 mg/kg): 280 ± 40 mg/dL; Blood glucose D0 ([5]; 10 mg/kg): 453 ± 43 mg/dL |
